Data from patent publication US4301140A, “Radiopharmaceutical method for monitoring kidneys” (G. D. Searle & Co., priority 1979, dated 1981).

Columns and labels:
[1] = cited from earlier work
[2] = Scintiscan (Anger camera) monitoring of distribution of radioactivity after intravenous administration, female beagle dog; format: in vivo; design: key: -: no significant measured radioactivity; relative amounts of measured radioactivity ranging from (-) for no significant measured radioactivity to (+++) for the maximum measured radioactivity; relative amounts of measured radioactivity ranging from (-) for no significant measured radioactivity to (+++) for the maximum measured radioactivity; +++: the maximum measured radioactivity; details: i.v., 7.3 mg, 0.84 mCi
Method: (§1) This procedure used with the rabbits was repeated with additional anesthetized animals: two female beagle dogs and two female rhesus monkeys. In these cases, however, unlike the cases of the rabbits, the complex solutions, again prepared generally as described in Examples 1 and 2, were injected intravenously in a saphenous vein of the dogs and monkeys.
Three milliliters of a solution of the complex formed from technetium-99m and 9.4 milligrams of fructose 1,6-diphosphate and having a radioactivity of 0.5 mCi were administered to one such dog weighing 11.7 kilograms. In addition, 1.6 milliliters of a solution of the complex formed from technetium-99m and 7.3 milligrams of fructose 6-phosphate having a radioactivity of 0.84 mCi were administered to a second such dog weighing 10.5 kilograms.
(§2) At various times after the aforesaid administrations of solutions of complexes of this invention, which times are indicated in Tables 1-6, scintiscan photographs and video tape recordings were taken of the aforesaid rabbit, beagles and monkeys using the Anger camera. This instrument was a Pho-Gamma LFOV Scintillation Camera System, Model 6413, fitted with a Model 3137 Vari-Back Camera, a Model 3122 Data-Store/Playback System and a Model 27851 Analog-Digital/Digital-AnalogConverter (all Searle Radiographics, Inc.). This entire system was interfaced with a Xerox 530 computer (Xerox Corp., Minneapolis, Minn.) which was programmed to record net counts per unit of time and percents of total counts in individual organs and to plot organ radioactivity versus time. The camera was operated with a 140 KeV high resolution Type II converging collimator using a 20 percent technetium-99m window. Generally 400,000 counts were accumulated on each scintiscan using both video tape and self-developing film, with the animal in the full ventral position. The photographs represented a visualization of the anatomic relationships in the kidneys.
(§3) Tables 1-6 contain semi-quantitative representations of the distribution of radioactivity in the organs of the test animals determined from the scintiscans. In Tables 1-6, (--), (+), (++) and (+++) indicate relative amounts of measured radioactivity ranging from (-) for no significant measured radioactivity to (+++) for the maximum measured radioactivity.

[3] = Scintiscan (Anger camera) monitoring of distribution of radioactivity after intravenous administration, rabbit; format: in vivo, New Zealand rabbit; design: key: -: no significant measured radioactivity; relative amounts of measured radioactivity ranging from (-) for no significant measured radioactivity to (+++) for the maximum measured radioactivity; relative amounts of measured radioactivity ranging from (-) for no significant measured radioactivity to (+++) for the maximum measured radioactivity; +++: the maximum measured radioactivity; details: i.v., 1.21 mg, 0.81 mCi
Method: Approximately 0.2 milliliter of a solution of the complex formed from technetium-99m and 0.95 milligram of fructose 1,6-diphosphate and prepared generally as described in Example 1 and having a radioactivity of 0.5 millicurie was administered intravenously to an anesthetized New Zealand rabbit weighing about 3 kilograms. Approximately the same volume of a solution of the complex formed from technetium-99m and 1.21 milligrams of fructose 6-phosphate prepared generally as described in Example 2, having a radioactivity of 0.81 millicurie was similarly administered to a second New Zealand rabbit of about the same weight. The injections were made using a 1 milliliter tuberculin syringe connected to a #23 gauge indwelling cannula inserted into a marginal ear vein. Each rabbit was positioned in a full ventral position for 2.5 to 3 hours during which time the disposition of the radioactivity in the rabbit in this position was monitored using a computer-augmented Anger camera. The measurements and results are discussed hereinafter, and the results of the test using the fructose 1,6-diphosphate and fructose 6-phosphate complexes are presented in Tables 1 and 2, respectively.
as §2, §3

[4] = Scintiscan (Anger camera) monitoring of distribution of radioactivity after intravenous administration, rhesus monkey; format: in vivo; design: key: -: no significant measured radioactivity; relative amounts of measured radioactivity ranging from (-) for no significant measured radioactivity to (+++) for the maximum measured radioactivity; relative amounts of measured radioactivity ranging from (-) for no significant measured radioactivity to (+++) for the maximum measured radioactivity; +++: the maximum measured radioactivity; details: i.v., 7.6 mg, 0.79 mCi
Method: as §1
Similarly 0.3 milliliter of a solution of the complex formed from technetium-99m and 1.1 milligrams of fructose 1,6-diphosphate having a radioactivity of 1.2 mCi were administered to one such monkey weighing 5.1 kilograms. Also 1.5 milliliters of a solution of the complex formed from technetium-99m and 7.6 milligrams of fructose 6-phosphate having a radioactivity of 0.79 mCi were administered to a second such monkey weighing 6.7 kilograms.
as §2, §3

[5] = Plasma clearance after intravenous injection, dogs (gamma spectrometer); format: in vivo, dog (male mongrel and female beagle); details: i.v., four tests
Method: In each case about 0.5-2 milliliters of a solution of the complex having radioactivity of about 1-4 mCi and formed from 0.5-10 milligrams of complexing agent were administered. […] The dogs ranged in weight from 6 to 15 kilograms. Periodically blood samples were removed from the jugular vein of the dogs and collected in vacuum tubes containing the disodium salt of ethylenediamine tetracetic acid and the radioactivity of one milliliter samples of plasma were measured in a gamma spectrometer.
The gamma spectrometer employed was a Model 1185 Gamma Scintillation Spectrometer (Searle Analytic Inc., Des Plaines, Ill.). One milliliter samples of plasma or whole blood were analyzed for technetium-99m, and samples were counted for 1 minute. As determined by the computer, the curve in FIG. 2 and the five other corresponding curves (not shown) from the other tests with the dogs were the best fitting curves passing through the plots of experimentally measured radioactivities.

[6] = Appearance of radioactive complex in kidneys and urinary bladder calculated from video tape measurements (FIG. 1), male mongrel dog; format: in vivo; details: i.v., 3-5 mg, 3.5 mCi, about 45 min
Description: as §2
The appearance in the kidneys and urinary bladder of a male mongrel dog weighing 14.1 kilograms, of the radioactive complex formed from technetium-99m and 3-5 milligrams of fructose 6-phosphate administered intravenously as described above in a 0.5-1.0 milliliter solution prepared as in Example 2 and having a radioactivity of 3.5 mCi, was calculated from video tape measurements by the computer and is plotted in FIG. 1 as the percentage of total radioactivity administered in the form of the radioactive complex versus time after administration. At about 45 minutes after administration, about 60 percent of the total radioactivity administered was concentrated in the urinary bladder, with less than 7 percent of the total dose of the radioactive complex in the kidneys.

O=C(O)CNC(=O)c1ccccc1[131I] [131I-o-iodohippurate]
route of excretion ([1]; after intravenous injection): excreted through the kidneys exclusively | clearance model ([1]; in vivo): appears to follow the two-compartment model

complex of technetium-99m and fructose 6-phosphate
Relative distribution of complex: Kidneys ([2]; 1 min): ++ | Relative distribution of complex: Urinary Bladder ([2]; 1 min): - | Relative distribution of complex: Vascular ([2]; 1 min): ++ | Relative distribution of complex: Kidneys ([2]; 6 min): ++ | Relative distribution of complex: Urinary Bladder ([2]; 6 min): + | Relative distribution of complex: Vascular ([2]; 6 min): + | Relative distribution of complex: Kidneys ([2]; 25 min): + | Relative distribution of complex: Urinary Bladder ([2]; 25 min): ++ | Relative distribution of complex: Vascular ([2]; 25 min): + | Relative distribution of complex: Kidneys ([2]; 30 min): + | Relative distribution of complex: Urinary Bladder ([2]; 30 min): +++ | Relative distribution of complex: Vascular ([2]; 30 min): + | Relative distribution of complex: Kidneys ([2]; 40 min): + | Relative distribution of complex: Urinary Bladder ([2]; 40 min): +++ | Relative distribution of complex: Vascular ([2]; 40 min): - | Relative distribution of complex: Kidneys ([2]; 50 min): + | Relative distribution of complex: Urinary Bladder ([2]; 50 min): +++ | Relative distribution of complex: Vascular ([2]; 50 min): - | Relative distribution of complex: Kidneys ([2]; 60 min): + | Relative distribution of complex: Urinary Bladder ([2]; 60 min): +++ | Relative distribution of complex: Vascular ([2]; 60 min): - | Relative distribution of complex: Kidneys ([2]; 70 min): + | Relative distribution of complex: Urinary Bladder ([2]; 70 min): +++ | Relative distribution of complex: Vascular ([2]; 70 min): - | Relative distribution of complex: Kidneys ([2]; 80 min): + | Relative distribution of complex: Urinary Bladder ([2]; 80 min): +++ | Relative distribution of complex: Vascular ([2]; 80 min): - | Relative distribution of complex: Kidneys ([2]; 90 min): + | Relative distribution of complex: Urinary Bladder ([2]; 90 min): +++ | Relative distribution of complex: Vascular ([2]; 90 min): - | Relative distribution of complex: Kidneys ([3]; 1 min): ++ | Relative distribution of complex: Urinary Bladder ([3]; 1 min): + | Relative distribution of complex: Vascular ([3]; 1 min): ++ | Relative distribution of complex: Kidneys ([3]; 30 min): ++ | Relative distribution of complex: Urinary Bladder ([3]; 30 min): ++ | Relative distribution of complex: Vascular ([3]; 30 min): + | Relative distribution of complex: Kidneys ([3]; 60 min): ++ | Relative distribution of complex: Urinary Bladder ([3]; 60 min): +++ | Relative distribution of complex: Vascular ([3]; 60 min): + | Relative distribution of complex: Kidneys ([3]; 120 min): + | Relative distribution of complex: Urinary Bladder ([3]; 120 min): +++ | Relative distribution of complex: Vascular ([3]; 120 min): - | Relative distribution of complex: Kidneys ([3]; 150 min): + | Relative distribution of complex: Urinary Bladder ([3]; 150 min): +++ | Relative distribution of complex: Vascular ([3]; 150 min): - | Relative distribution of complex: Kidneys ([4]; 4 min): ++ | Relative distribution of complex: Urinary Bladder ([4]; 4 min): +++ | Relative distribution of complex: Vascular ([4]; 4 min): + | Relative distribution of complex: Kidneys ([4]; 30 min): ++ | Relative distribution of complex: Urinary Bladder ([4]; 30 min): +++ | Relative distribution of complex: Vascular ([4]; 30 min): + | Relative distribution of complex: Kidneys ([4]; 50 min): + | Relative distribution of complex: Urinary Bladder ([4]; 50 min): +++ | Relative distribution of complex: Vascular ([4]; 50 min): - | Relative distribution of complex: Kidneys ([4]; 65 min): + | Relative distribution of complex: Urinary Bladder ([4]; 65 min): +++ | Relative distribution of complex: Vascular ([4]; 65 min): - | improved average half time, distributive phase ([5]; single obviously erroneous measurement eliminated, standard deviation 0.025 hour): 0.072 h | improved average half time, elimination phase ([5]; single obviously erroneous measurement eliminated, standard deviation 0.72 hour): 1.68 h | average half time, distributive phase ([5]; standard deviation 0.023 hour): 0.088 h | average half time, elimination phase ([5]; standard deviation 3.29 hours): 3.98 h | percentage of total dose of the radioactive complex in the kidneys [6]: less than 7% | percentage of total radioactivity administered concentrated in the urinary bladder [6]: about 60% | radioactivity concentrated in any other organ [6]: No measurable radioactivity
